Legend:
5-LO [1] = target: T1, 5-LO (Homo sapiens, UniProt P09917); experiment: Test a) in vitro human blood assay, A23187 challenge, LTB4 radioimmunoassay; type: cell-based; conditions: heparinised human blood
T1 construct: incubating a test compound with heparinised human blood, prior to challenge with the calcium ionphore A23187; endogenous in cells; host or cells: blood cells in heparinised human blood
T1 sequence (P09917 1-674): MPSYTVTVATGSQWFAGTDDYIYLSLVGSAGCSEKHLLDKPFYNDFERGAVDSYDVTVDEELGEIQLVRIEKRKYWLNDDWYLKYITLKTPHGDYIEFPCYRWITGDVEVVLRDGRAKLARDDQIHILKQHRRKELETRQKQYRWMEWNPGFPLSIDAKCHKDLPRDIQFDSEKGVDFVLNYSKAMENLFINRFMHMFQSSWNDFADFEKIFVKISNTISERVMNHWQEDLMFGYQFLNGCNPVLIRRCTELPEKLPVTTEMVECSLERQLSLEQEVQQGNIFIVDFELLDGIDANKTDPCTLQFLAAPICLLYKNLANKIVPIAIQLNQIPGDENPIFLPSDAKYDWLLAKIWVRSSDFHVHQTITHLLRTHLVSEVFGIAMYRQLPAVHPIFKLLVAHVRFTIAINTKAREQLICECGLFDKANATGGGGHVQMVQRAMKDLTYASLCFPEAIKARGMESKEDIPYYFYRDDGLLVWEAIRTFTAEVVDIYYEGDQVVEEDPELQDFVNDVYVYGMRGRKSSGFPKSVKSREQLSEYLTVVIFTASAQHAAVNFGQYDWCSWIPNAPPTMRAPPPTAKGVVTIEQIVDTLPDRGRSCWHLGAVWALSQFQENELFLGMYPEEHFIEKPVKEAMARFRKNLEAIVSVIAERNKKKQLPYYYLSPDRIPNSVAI
Protocol: (§1) As stated previously, the novel compounds of the formula I are inhibitors of the enzyme 5-LO.
a) An in vitro assay system involving incubating a test compound with heparinised human blood, prior to challenge with the calcium ionphore A23187 and then indirectly measuring the inhibitory effects on 5-LO by assaying the amount of LTB4 using specific radioimmunoassays described by Carey and Forder (Prostaglandins, Leukotrienes Med., 1986, 22, 57; Prostaglandins, 1984, 28, 666; Brit. J. Pharmacol., 1985, 84, 34P) which involve the use of a protein-LTB4 conjugate produced using the procedure of Young et alia (Prostaglandins, 1983, 26(4), 605-613). The effects of a test compound on the enzyme cyclooxygenase (which is involved in the alternative metabolic pathway for arachidonic acid and gives rise to prostaglandins, thromboxanes and related metabolites) may be measured at the same time using the specific radioimmunoassay for thromboxane B2 (TxB2) described by Carey and Forder (see above). This test provides an indication of the effects of a test compound against 5-LO and also cyclooxygenase in the presence of blood cells and proteins. It permits the selectivity of the inhibitory effect on 5-LO or cyclooxygenase to be assessed.

5-LO [2] = target: T2, 5-LO (Rattus norvegicus, UniProt P12527); experiment: Test c) in vivo zymosan-induced LTB4 liberation in rat air pouch; conditions: male rats, oral
T2 construct: liberation of LTB4 induced by zymosan within an air pouch generated within the subcutaneous tissue of the back of male rats; from tissue
T2 sequence (P12527 1-673): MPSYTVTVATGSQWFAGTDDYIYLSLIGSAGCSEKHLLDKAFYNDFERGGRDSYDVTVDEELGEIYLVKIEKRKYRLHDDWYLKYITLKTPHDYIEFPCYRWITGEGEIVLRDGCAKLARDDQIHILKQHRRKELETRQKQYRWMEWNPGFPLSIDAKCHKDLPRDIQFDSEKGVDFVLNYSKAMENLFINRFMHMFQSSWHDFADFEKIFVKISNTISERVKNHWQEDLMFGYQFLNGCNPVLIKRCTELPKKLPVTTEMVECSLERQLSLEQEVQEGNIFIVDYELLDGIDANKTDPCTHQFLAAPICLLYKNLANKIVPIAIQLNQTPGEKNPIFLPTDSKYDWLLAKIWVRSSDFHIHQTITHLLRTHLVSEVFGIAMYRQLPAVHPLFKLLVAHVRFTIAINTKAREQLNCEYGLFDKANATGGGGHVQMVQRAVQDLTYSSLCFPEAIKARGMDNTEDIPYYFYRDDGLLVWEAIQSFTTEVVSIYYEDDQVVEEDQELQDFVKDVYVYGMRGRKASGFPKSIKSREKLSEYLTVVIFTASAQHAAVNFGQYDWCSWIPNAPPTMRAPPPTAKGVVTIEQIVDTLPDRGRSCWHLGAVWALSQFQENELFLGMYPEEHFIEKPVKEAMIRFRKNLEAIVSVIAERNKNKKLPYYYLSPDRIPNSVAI
Protocol: as §1
c) An in vivo system involving measuring the effects of a test compound administered orally against the liberation of LTB4 induced by zymosan within an air pouch generated within the subcutaneous tissue of the back of male rats. The rats are anaesthetised and air pouches are formed by the injection of sterile air (20 ml). A further injection of air (10 ml) is similarly given after 3 days. At 6 days after the initial air injection the test compound is administered (usually orally as the suspension produced when a solution of the test compound in dimethylsulphoxide is added to hydroxypropylmethylcellulose), followed by the intrapouch injection of zymosan (1 ml of a 1% suspension in physiological saline). After 3 hours the rats are killed, the air pouches are lavaged with physiological saline, and the specific radioimmunoassay described above is used to assay LTB4 in the washings. This test provides an indication of inhibitory effects against 5-LO in an inflammatory milieu.

Compound	IC50 (5-LO [1]) [nM]	ED50 (5-LO [2]) [mg/kg]
COC1(c2cccc(Sc3ccc(S(=O)(=O)Nc4nccs4)cc3)c2)CCOCC1 [Example 6, 4-[3-(4-methoxytetrahydropyran-4-yl)phenylthio]-N-(2-thiazolyl)benzenesulphonamide]	1000	1.5
COC1(c2cccc(Sc3ccc(S(=O)(=O)Nc4ccc(Cl)cn4)cc3)c2)CCOCC1 [Example 4, N-(5-chloropyrid-2-yl)-4[3-(4-methoxytetrahydropyran-4-yl)phenylthio]benzenesulphonamide]	4200	1.5
